Results reported in paper PMC12648652, “Combining AlphaFold with Focused Virtual Library Design in the Development of Novel CCR2 and CCR5 Antagonists” (Journal of Chemical Information and Modeling, 2025).

The molecules below were run against CC chemokine receptor 2 (CCR2) (Homo sapiens, UniProt P41597).
Chain of CC chemokine receptor 2 (CCR2) (P41597 whole entry): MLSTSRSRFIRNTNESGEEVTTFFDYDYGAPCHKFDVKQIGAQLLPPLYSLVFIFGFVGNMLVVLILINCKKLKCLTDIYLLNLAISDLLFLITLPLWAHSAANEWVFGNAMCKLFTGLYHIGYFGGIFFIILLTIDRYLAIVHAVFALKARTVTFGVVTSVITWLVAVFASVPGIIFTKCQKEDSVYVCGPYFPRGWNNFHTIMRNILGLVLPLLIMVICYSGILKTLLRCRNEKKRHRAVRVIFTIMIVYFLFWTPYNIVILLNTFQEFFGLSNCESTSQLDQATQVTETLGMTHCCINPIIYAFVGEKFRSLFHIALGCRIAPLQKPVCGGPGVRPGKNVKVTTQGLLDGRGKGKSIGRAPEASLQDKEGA

**Q.** Which Ki does the source give for `COc1ccc(S(=O)(=O)Nc2cncc(N3CCOCC3)n2)cc1` [compound 13, LUF8070] here?
**A.** 3.26 µM

**Q.** For `O=S(=O)(Nc1cncc(N2CCOCC2)n1)c1ccc(Cl)c(Cl)c1` [compound 17, LUF8075], which Ki is on record?
**A.** 1.32 µM

**Q.** For `O=S(=O)(Nc1cncc(N2CCCCC2)n1)c1ccc(Cl)c(C(F)(F)F)c1` [compound 20, LUF8100], which Ki is on record?
**A.** 5.95 µM
